PMC8568133, “Evaluation of bisphenylthiazoles as a promising class for combating multidrug-resistant fungal infections” (PLoS ONE, 2021)
≈ marks a conversion by molar mass, not a printed value. Read-outs that look alike come from different tables or passages of the source.

How the values were obtained:
[1] = tested on: E. coli BW25113 (wild-type); assay: Broth microdilution MIC, initial antibacterial screening; type: cell-based, Escherichia coli; settings: Escherichia coli, read-out: MIC
In short: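 Broth microdilution per CLSI with ~5 × 10^5 CFU/mL inoculum and serially diluted compounds. S. aureus and E. coli were tested in CAMHB, aerobic, 37 °C, 18–20 h; C. difficile in supplemented brain heart infusion broth (yeast extract, hemin, vitamin K), anaerobic, 37 °C, 48 h. MIC read as visible growth.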

[2] = tested on: Candida glabrata; assay: Antifungal broth microdilution MIC (50% growth inhibition) and MFC; type: cell-based; settings: Nakaseomyces glabratus; for MIC: read-out: MIC
In short: (§1)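 CLSI broth microdilution, clinical isolates, 128–0.06 μg/mL serial dilutions, triplicates. MFC: no-growth wells plated on YPD agar, 37 °C 24 h, 99.9% kill. Three independent repeats.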

[3] = tested on: Candida krusei; assay: as above; type: cell-based; settings: Pichia kudriavzevii; for MIC: read-out: MIC
In short: as §1

[4] = tested on: Candida albicans; assay: as above; type: cell-based; settings: Candida albicans; for MIC: read-out: MIC
In short: (§2)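 MICs came from CLSI broth microdilution against clinical isolates, scored as 50% inhibition at 35 °C after 24 h (Candida) or 48 h (Cryptococcus). MFC is the lowest concentration cutting growth by 99.9% on YPD agar.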

[5] = tested on: Candida tropicalis; assay: as above; type: cell-based; settings: Candida tropicalis, ATCC1369, C. tropicalis ATCC 1369
In short: as §1

[6] = tested on: Candida auris; assay: as above; type: cell-based; settings: for MIC: read-out: MIC
In short: as §2

[7] = ATCC66032, C. glabrata ATCC 66032
[8] = ATCC10231, C. albicans ATCC 10231

## Cc1nc(-c2ccc(-c3ccccc3)cc2)sc1-c1nnc(N[C@@H]2CCCC[C@@H]2N)o1 (relative stereo) [Compound 17, cis-N-{5-[2-((1,1’-Biphenyl)-4-yl)-4-methylthiazol-5-yl]-1,3,4-oxadiazol-2-yl}cyclo-hexane-1,2-diamine]
[1]
  MIC: > 64 µg/mL
[2]; [7]
  MFC: > 64 µg/mL
  MIC: 0.5 µg/mL (≈ 1.16 µM)
[2]; C. glabrata ATCC MYA-2950
  MFC: > 64 µg/mL
  MIC: 0.5 µg/mL (≈ 1.16 µM)
[3]; ATCC34135, C. krusei ATCC 34135
  MIC: 1 µg/mL (≈ 2.32 µM)
[3]; C. krusei CAB 396420
  MFC: > 64 µg/mL
  MIC: 1 µg/mL (≈ 2.32 µM)
[4]; [8]
  MFC: > 64 µg/mL
  MIC: 4 µg/mL (≈ 9.27 µM)
[4]; C. albicans NR-29448 (fluconazole-resistant)
  MIC: 2 µg/mL (≈ 4.63 µM)
[4]; C. albicans SS5314 (wild-type)
  MIC: 1 µg/mL (≈ 2.32 µM)
[4]; C. albicans NR-29448
  MFC: > 64 µg/mL
[5]
  MFC: > 64 µg/mL
[5]; read-out: MIC
  MIC: 4 µg/mL (≈ 9.27 µM)
[6]; Candida auris 390
  MFC: >64 µg/mL
[6]; Candidozyma auris, C. auris 381
  MIC: 1 µg/mL (≈ 2.32 µM)
[6]; Candidozyma auris, C. auris 382
  MIC: 2 µg/mL (≈ 4.63 µM)
[6]; Candidozyma auris, C. auris 383
  MIC: 1 µg/mL (≈ 2.32 µM)
[6]; Candidozyma auris, C. auris 384
  MIC: 1 µg/mL (≈ 2.32 µM)
[6]; Candidozyma auris, C. auris 385
  MIC: 2 µg/mL (≈ 4.63 µM)
[6]; Candidozyma auris, C. auris 386
  MIC: 1 µg/mL (≈ 2.32 µM)
[6]; Candidozyma auris, C. auris 387
  MIC: 2 µg/mL (≈ 4.63 µM)
[6]; Candidozyma auris, C. auris 388
  MIC: 1 µg/mL (≈ 2.32 µM)
[6]; Candidozyma auris, C. auris 389
  MIC: 2 µg/mL (≈ 4.63 µM)
[6]; Candidozyma auris, C. auris 390
  MIC: 1 µg/mL (≈ 2.32 µM)
[6]; Candidozyma auris, Candida auris 389, read-out: MFC
  MFC: > 64 µg/mL
